This note sets out measurements from patent publication US20250051762A1, “PLATFORM USING DNA-ENCODED SMALL MOLECULE LIBRARIES AND RNA SELECTION TO DESIGN SMALL MOLECULES THAT TARGET RNA” (University of Florida Research Foundation, Incorporated, priority 2021, published 2025).

What all share (format): cell-based, human
Assay [1] concerns MCF-10a cells that express WT pri-miR-27a. In words: Migration of MCF-10a cells expressing WT pri-miR-27a. The protocol:
MCF-10a cells were transfected with plasmids to express pri-miR-27a and mutant pri-miR-27a in 12- or 24-well plates with Lipofectamine 2000 per the manufacturer's protocol. For treatment of compounds, stocks were diluted in growth medium and added to cells for 48 h. The miRCURY miR-27a LNA inhibitor (QIAGEN, Cat #339121) was used as a positive control by diluting in growth medium to a final concentration of 1 nM. The miRCURY LNA Negative Control (QIAGEN, Cat #YI00199007-DDA) was used as a negative control, which has also diluted in growth medium to a final concentration of 1 nM.
Migration assay: MDA-MB-231 cells were grown in 60 mm diameter dishes and treated as described in “Cell culture and compound treatment” for 12 h. The medium was then removed and replaced with growth medium lacking FBS but with the same concentration of compound. After 12 h of serum starvation, the cells were detached and seeded to ThinCert™ (GBO) 24-well hanging inserts with 8 μm pores (˜5×10^4 cells per insert). Fresh growth medium with FBS was dispended in a 24-well plate (600 μL each well), and the ThinCert™ hanging inserts containing cells were then placed into the wells. After incubating for 24 h, the growth medium in the inserts was removed, and the remaining cells were washed twice with 1×DPBS. […] The remaining cells were then imaged by microscopy and counted for quantification (3 fields of view per sample).

A further assay relates to miR-24-2. In words: RT-qPCR of mature miR-24-2 in MDA-MB-231 cells. As to the method:
(§1) Cell lines. Compounds were tested in MDA-MB-231 TNBC cells (HTB-26, ATCC), LNCaP metastatic prostate cancer cells (gifted from Junli Luo lab), MCF-7 (HTB-22, ATCC) breast cancer cells, HeLa cervical adenocarcinoma cells (CCL-2, ATCC), and MCF-10a, a model of healthy breast epithelial cells (CRL-10317, ATCC).
Cell culture and compound treatment. All cells were maintained at 37° C. with 5% CO2. MDA-MB-231 and LNCaP cells were cultured in RPMI 1640 medium with L-glutamine & 25 mM HEPES (Corning) supplemented with 10% (v/v) fetal bovine serum (FBS; Sigma) and 1× (v/v) Antibiotic-Antimycotic solution (Corning). MCF-7 and HeLa cells were cultured in DMEM medium with 4.5 g/L glucose (Corning), supplemented with 10% FBS, 1× (v/v) Glutagro (Corning), and 1× (v/v) Antibiotic-Antimycotic solution. […]
(§2) Analysis of mRNA abundance: Each cell line was grown as a monolayer in 12- or 24-well plates and treated as described in “Cell culture and compound treatment”. […] Relative abundance of mature miRNAs was calculated by normalizing to RNU6, and relative abundance for pri-miRNAs and mRNAs was calculated by normalizing to 18S ribosomal RNA, using the AAC, method. […]
Background: Real-time PCR tracks product formation cycle by cycle.

The test system of another assay is mutant pri-miR-27a. The experiment in a line: RT-qPCR of miR-27a biogenesis in MCF-10a cells transfected with mutant pri-miR-27a. The following applies: mutant plasmid, 48 h.
Source text: To gauge the specificity of 9 for pri-miR-27a, inhibition of biogenesis was first studied in a cellular model of healthy breast epithelium, MCF-10a, in which miR-27a expression is not detectable (Ct>31). MCF-10a cells were transfected with a plasmid encoding WT pri-miR-27a or mutant in which the two 5′GAG/3′CCC internal loops at and nearby the Drosha processing site were mutated to base pairs. In the absence of compound treatment, both primary miRNA transcripts were processed similarly, generating mature miR-27a, as determined by RT-qPCR.
as §1
Cell culture and compound treatment. All cells were maintained at 37° C. with 5% CO2. […]
as §2

Take `C#CCN(CC(N)=O)C(=O)C[C@H](Cc1c[nH]c2ccccc12)NC(=O)[C@@H]1C[C@H](NC(=O)Cn2c(=O)[nH]c3ccccc3c2=O)CN1` [Compound 9]: the migration result in assay [1] is on record as “reduced migration”. Also, the “effect on levels of mature miR-24-2” value in the assay with miR-24-2 is given as “no effect”. In addition, in the assay on mutant pri-miR-27a, the “inhibition of biogenesis of mutated pri-miR-27a” value is on record as “did not inhibit biogenesis”.
